Values quoted from earlier work as cited in patent publication US8529907B2, “Methods of treating ophthalmic disorders” (Nikken Sohonsha Corporation, priority 2008, dated 2013).

What was measured:
RP patients = conditions: 15,000 U/d

SMILES: CCCCCCCCCCCCCCCC(=O)OC/C=C(C)/C=C/C=C(C)/C=C/C1=C(C)CCCC1(C)C [Vitamin A palmitate]
- slowing of the progress of RP (RP patients): about 2 % per year

SMILES: CC1=C(/C=C/C(C)=C/C=C/C(C)=C/C=O)C(C)(C)CCC1 [11-cis-retinal]
- rescue of mutant opsin P23H (mutant opsin P23H): effectively rescued

SMILES: CC1=C(/C=C/C(C)=C\C=C\C(C)=C\C=O)C(C)(C)CCC1 [9-cis-retinal]
- duration of supported rod retinal function post-treatment (Rpe65-deficient mice; early intervention): more than 6 months
- retinal ester accumulation (Rpe65-deficient mice; early intervention): significantly attenuated
- rod photopigment and rod physiology (Rpe65-deficient mice; oral, within 48 h, Rpe65-deficient mice): formation of rod photopigment and dramatic improvement in rod physiology
- rescue of mutant opsin P23H (mutant opsin P23H): effectively rescued
